Assay results: patent US9144241B2, “Synergistic pesticidal compositions and related methods” (Dow AgroSciences LLC, priority 2013, dated 2015)

Test system: diamondback moth, Plutella xylostella
Experiment: Diamondback moth bioassay on track-sprayed cabbage plants/leaf discs; synergy by Colby's equation
Assay type: in vivo
Settings: single active, second instar larvae, 400 L/Ha spray
Text: The method described in Colby S. R., “Calculating Synergistic and Antagonistic Responses of Herbicide Combinations,” Weeds, 1967, 15, 20-22 was used to determine an existence of synergic effect between the acetyl CoA carboxylase inhibitor compound and the pesticide (I), (II), or any agriculturally acceptable salt thereof in the formulated pesticidal composition.
Three second instar diamondback moth, Plutella xylostella, were infested onto each leaf disc. […] The “Colby's Expected Action” was calculated using Colby's equation as discussed previously.
Three second instar diamondback moth, Plutella xylostella, were infested onto each leaf disc.
The percent control may be determined some time after treatment.

Compound	% Control Three Days After Treatment (dose rate 0.000625 weight %) [%]	% Control Three Days After Treatment (dose rate 0.0015625 weight %) [%]	% Control Three Days After Treatment (dose rate 0.0015625 weight %, listed as spirotetramat)	% Control Three Days After Treatment (dose rate 0.0025 weight %)
CCN(C(=O)CC[S+]([O-])CCC(F)(F)F)c1cn(-c2cccnc2)nc1Cl (centres unmarked) [Compound II, N-(3-chloro-1-(pyridin-3-yl)-1H-pyrazol-4-yl)-N-ethyl-3-((3,3,3-trifluoropropyl)sulfinyl)propanamide]	0	–	–	–
CCOC(=O)OC1=C(c2cc(C)ccc2C)C(=O)N[C@]12CC[C@@H](OC)CC2 [Spirotetramat, cis-3-(2,5-dimethylphenyl)-8-methoxy-2-oxo-1-azaspiro[4.5]dec-3-en-4-yl ethylcarbonate, reference compound]	–	0	no activity	–
CCN(C(=O)CCSCCC(F)(F)F)c1cn(-c2cccnc2)nc1Cl [Compound I, N-(3-chloro-1-(pyridin-3-yl)-1H-pyrazol-4-yl)-N-ethyl-3-((3,3,3-trifluoropropyl)thio) propanamide]	0	–	–	no activity
